Laboratory results taken from patent publication US20170095432A1, “TREPROSTINIL FORMULATIONS” (United Therapeutics Corporation, priority 2014, published 2017).

Key:
Assay type in all cases: physicochemical
[1] = Stability of treprostinil diethanolamine at ambient and refrigerated environments; details: 14 days
Description: (§1) Treprostinil diethanolamine was determined to be stable for 14 days at both ambient and refrigerated environments.

[2] = Binding of treprostinil diethanolamine to the 0.45-μm PTFE filters used in the assay
Description: A UV absorbance measurement was conducted with an approximate 0.1 mg/mL treprostinil diolamine solution with a Fluostar Omega BMG Labtech UV spectrophotometer from 220 nm to 350 nm to determine the λmax. Two standard curves were established with known concentrations of treprostinil at 228 nm and 270 nm. The time to achieve equilibrium between bound and unbound treprostinil to the IER was determined. One gram of resin was added to 100 mL of 10 mg/mL treprostinil solution. The suspension was stirred for four hours and 1 -mL samples were taken at 30, 60, 90, 120, 180, and 240 minutes. Each sample was filtered through a 0.45-μm PTFE filter, and the resulting solution was assayed by UV spectrophotometry for treprostinil concentration. Complexation experiments were conducted with known concentrations of treprostinil and one gram of resin at ratios of 1:0.5, 1:1, 1:2, and 1:4, resin:treprostinil (w/w). Two resins, PUROLITE™ and DUOLITE™, were evaluated separately. The amount of treprostinil complexed per gram of resin was calculated based on the difference between the initial and final treprostinil concentration. The percent loading efficiency was calculated based on the equation: (1-[unbound treprostinil]/[initial treprostinil]) * 100. […]
as §1

[3] = Complexation of treprostinil with cholestyramine ion-exchange resins (PUROLITE, DUOLITE); unbound drug assayed by UV at 270 nm
Description: A UV absorbance measurement was conducted with an approximate 0.1 mg/mL treprostinil diolamine solution with a Fluostar Omega BMG Labtech UV spectrophotometer from 220 nm to 350 nm to determine the λmax. Two standard curves were established with known concentrations of treprostinil at 228 nm and 270 nm. The time to achieve equilibrium between bound and unbound treprostinil to the IER was determined. One gram of resin was added to 100 mL of 10 mg/mL treprostinil solution. The suspension was stirred for four hours and 1 -mL samples were taken at 30, 60, 90, 120, 180, and 240 minutes. Each sample was filtered through a 0.45-μm PTFE filter, and the resulting solution was assayed by UV spectrophotometry for treprostinil concentration. Complexation experiments were conducted with known concentrations of treprostinil and one gram of resin at ratios of 1:0.5, 1:1, 1:2, and 1:4, resin:treprostinil (w/w). Two resins, PUROLITE™ and DUOLITE™, were evaluated separately. The amount of treprostinil complexed per gram of resin was calculated based on the difference between the initial and final treprostinil concentration. The percent loading efficiency was calculated based on the equation: (1-[unbound treprostinil]/[initial treprostinil]) * 100. Photographs were taken for each resin before and after complexation with treprostinil using a Leica DM IL LED light microscope and Leica DMC2900 microscope camera.
FIGS. 1-6 present the results of experiments. […] FIGS. 2A and 2B show calibration curves for determining a concentration of unbound treprostinil (diethanolamine) based on treprostinil absorbance at 228 nm (2A) and 270 nm (2B). The 270 nm curve was used to calculate all the concentrations in the complexation experiments.

CCCCC[C@H](O)CC[C@@H]1[C@H]2Cc3cccc(OCC(=O)O)c3C[C@H]2C[C@H]1O.OCCNCCO [Treprostinil diethanolamine]
stability ([1]; ambient environment): stable
stability ([1]; refrigerated environment): stable
binding effect with PTFE filters [2]: no binding effect
loading efficiency (drug bound to the resin) ([3]; lower concentrations of treprostinil diethanolamine): almost all drug was bound to the resin

CCCCC[C@H](O)CC[C@@H]1[C@H]2Cc3cccc(OCC(=O)O)c3C[C@H]2C[C@H]1O [treprostinil]
maximum amount of treprostinil bound ([3]; plateau with increasing concentration of treprostinil diethanolamine, resin:treprostinil ratios 1:0.5 to 1:4 (w/w)): 1.6 g/g resin
time to equilibrium between bound and unbound treprostinil to the resins ([3]; stirring, 1 g resin in 100 mL of 10 mg/mL treprostinil solution): After one hour of stirring
